Assay results from patent publication US20100069341A1, “TETRAHYDRO-PYRANOPYRAZOLE CANNABINOID MODULATORS” (priority 2005, published 2010).
Where two headings read alike, the source gives them in different places.

Tests used:
[1] = target: T1, Cannabinoid CB1 Receptor (Homo sapiens, UniProt P21554); test: Binding assay, cannabinoid CB1 receptor ([3H]-CP-55,940 displacement, SK-N-MC cell membranes); details: for inhibition at 0.2 µM: read-out: Cannabinoid CB1 Receptor Binding, percent inhibition
T1 construct: expressed in transfected cells; semi-purified membrane pellet
Experimental: (§1) Binding Assay for CB1 or CB2 Agonists or Inverse Agonists
(§2) The human CB1 and CB2 receptors were stably expressed in SK-N-MC cells transfected with pcDNA3 CB-1 (human) or pcDNA3 CB-2 (human). The cells were grown in T-180 cell culture flasks under standard cell culture conditions at 37° C. in a 5% CO2 atmosphere. The cells were harvested by trysinization and homogenized in a homogenization buffer (10 mM Tris, 0.2 mM MgCl2, 5 mM KCl, with protease inhibitors aprotinin, leupeptin, pepstatin A and bacitracin) and centrifuged (2000 g). The supernatant was then centrifuged in 2M sucrose (31,300 g) to produce a semi-purified membrane pellet. The pellet was resuspended in homogenization and store at −80° C.
On the day of the assay, the pellet was thawed on ice and diluted in assay buffer (50 mM Tris-HCl, 5 mM MgCl2, 2.5 mM EDTA, 0.5 mg/mL fatty acid free bovine serum albumin, pH 7.5). […] The plate was covered and incubated for 90 minutes at 30° C. The contents were then aspirated onto a Packard Unifilter GF/C filter bottom plate prewet with 0.5% polyethyleneimine. The wells of the polypropylene plate were rinsed and aspirated seven times with a 0.9% saline-0.5% Tween 20 solution. The Unifilter plate was dried, a scintillation cocktail was added to each well and the counts representing binding were quantitated in a TopCount scintillation counter.
(§3) For compounds tested, an IC50 binding value was obtained from percent inhibition studies in which various test concentrations were used. The binding value (in μM) was calculated by linear regression.

[2] = target: T2, Cannabinoid CB2 Receptor (Homo sapiens, UniProt P34972); test: Binding assay, cannabinoid CB2 receptor ([3H]-CP-55,940 displacement, SK-N-MC cell membranes); details: test concentration of 0.2 μM; human CB2 in SK-N-MC membranes; read-out: Cannabinoid CB2 Receptor Binding, percent inhibition
T2 construct: expressed in transfected cells; semi-purified membrane pellet
Experimental: as §1, §2
On the day of the assay, the pellet was thawed on ice and diluted in assay buffer (50 mM Tris-HCl, 5 mM MgCl2, 2.5 mM EDTA, 0.5 mg/mL fatty acid free bovine serum albumin, pH 7.5). The diluted membrane was added with buffer, test compound or standard and the radioligand [H]^3+-CP-55,940 (0.2 nM) to the wells of a 96-well polypropylene plate. Non-specific binding was measured in wells containing 10 uM WIN 55,212. The plate was covered and incubated for 90 minutes at 30° C. The contents were then aspirated onto a Packard Unifilter GF/C filter bottom plate prewet with 0.5% polyethyleneimine. The wells of the polypropylene plate were rinsed and aspirated seven times with a 0.9% saline-0.5% Tween 20 solution. The Unifilter plate was dried, a scintillation cocktail was added to each well and the counts representing binding were quantitated in a TopCount scintillation counter.
as §3, with “regression. For compounds without an IC50 binding value, the percent inhibition (in %) was obtained at a test concentration of 0.2 μM.” for “regression.”

[3] = test concentration of 0.2 μM, human CB1 in SK-N-MC membranes

T1 sequence (P21554 whole entry): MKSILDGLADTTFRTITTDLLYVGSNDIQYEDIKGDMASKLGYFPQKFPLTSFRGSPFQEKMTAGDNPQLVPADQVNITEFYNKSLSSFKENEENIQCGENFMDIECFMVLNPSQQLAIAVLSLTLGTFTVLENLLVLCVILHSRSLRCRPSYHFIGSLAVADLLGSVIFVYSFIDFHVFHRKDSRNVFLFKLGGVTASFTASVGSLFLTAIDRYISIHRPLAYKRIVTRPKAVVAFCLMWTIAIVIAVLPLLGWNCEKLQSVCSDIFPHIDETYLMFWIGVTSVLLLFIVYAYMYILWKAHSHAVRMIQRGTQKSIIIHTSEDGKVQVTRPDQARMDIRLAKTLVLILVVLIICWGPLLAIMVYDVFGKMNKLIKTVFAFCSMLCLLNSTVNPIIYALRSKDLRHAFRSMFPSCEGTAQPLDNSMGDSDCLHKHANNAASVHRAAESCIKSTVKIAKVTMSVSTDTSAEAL
T2 sequence (P34972 whole entry): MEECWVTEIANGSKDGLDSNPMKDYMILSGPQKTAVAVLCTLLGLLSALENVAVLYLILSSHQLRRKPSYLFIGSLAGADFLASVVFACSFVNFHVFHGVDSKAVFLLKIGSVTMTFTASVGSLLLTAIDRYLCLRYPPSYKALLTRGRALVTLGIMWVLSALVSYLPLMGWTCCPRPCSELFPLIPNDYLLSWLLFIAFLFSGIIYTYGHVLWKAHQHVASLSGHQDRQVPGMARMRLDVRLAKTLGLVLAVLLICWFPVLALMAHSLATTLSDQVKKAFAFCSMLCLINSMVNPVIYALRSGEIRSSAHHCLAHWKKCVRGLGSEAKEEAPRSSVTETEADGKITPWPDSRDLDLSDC

| Compound | inhibition at 0.2 µM [1, 3] [%] | inhibition at 0.2 µM [2] [%] | IC50 [1] [nM] | inhibition at 0.2 µM [1] [%] |
| --- | --- | --- | --- | --- |
| O=C(NN1CCCC1)c1nn(-c2ccc(Cl)cc2Cl)c2c1COC/C2=C\c1ccc(Cl)o1 [Cpd 72, (7Z)-7-(5-chloro-furan-2-ylmethylene)-1-(2,4-dichloro-phenyl)-1,4,6,7-tetrahydro-pyrano[4,3-c]pyrazole-3-carboxylic acid pyrrolidin-1-ylamide] | 48 | 8 |  |  |
| O=C(NN1CCCC1)c1nn(-c2ccc(Cl)cc2Cl)c2c1COC/C2=C\c1ccc(Cl)s1 [Cpd 57, (7Z)-7-(5-chloro-thiophen-2-ylmethylene)-1-(2,4-dichloro-phenyl)-1,4,6,7-tetrahydro-pyrano[4,3-c]pyrazole-3-carboxylic acid pyrrolidin-1-ylamide] | 67 | 15 |  |  |
| O=C(NN1CC2CCCC2C1)c1nn(-c2ccc(Cl)cc2Cl)c2c1COC/C2=C\c1ccsc1 (stereo not shown) [Cpd 45, (7Z)-1-(2,4-dichloro-phenyl)-7-thiophen-3-ylmethylene-1,4,6,7-tetrahydro-pyrano[4,3-c]pyrazole-3-carboxylic acid (hexahydro-cyclopenta[c]pyrrol-2-yl)-amide] | 84 | 19 | 20 |  |
| C[C@H](NC(=O)c1nn(-c2ccc(Cl)cc2Cl)c2c1COC/C2=C\c1ccc(F)cc1)c1ccccc1 [Cpd 1, (7Z)-1-(2,4-dichloro-phenyl)-7-(4-fluoro-benzylidene)-1,4,6 7-tetrahydro-pyrano[4,3-c]pyrazole-3-carboxylic acid [(1S)-1-phenyl-ethyl]-amide] | 54 | 6 |  |  |
| C[C@@H](NC(=O)c1nn(-c2ccc(Cl)cc2Cl)c2c1COC/C2=C\c1ccsc1)c1ccccc1 [Cpd 40, (7Z)-1-(2,4-dichloro-phenyl)-7-thiophen-3-ylmethylene-1,4,6,7-tetrahydro-pyrano[4,3-c]pyrazole-3-carboxylic acid [(R)-1-phenyl-ethyl]-amide] |  | 21 | 10 | 84 |
| C[C@@H](NC(=O)c1nn(-c2ccc(Cl)cc2)c2c1COC/C2=C\c1ccc(F)cc1)C1CCCCC1 [Cpd 13, (7Z)-1-(4-chloro-phenyl)-7-(4-fluoro-benzylidene)-1,4,6,7-tetrahydro-pyrano[4,3-c]pyrazole-3-carboxylic acid [(1R)-1-cyclohexyl-ethyl]-amide] |  | 25 | 20 | 84 |
| O=C(c1nn(-c2ccc(Cl)cc2)c2c1COC/C2=C\c1ccc(F)cc1)N1CCC[C@@H]1CO [Cpd 18, (7Z)-[1-(4-chloro-phenyl)-7-(4-fluoro-benzylidene)-1,4,6,7-tetrahydro-pyrano[4,3-c]pyrazol-3-yl]-[(2R)-2-hydroxymethyl-pyrrolidin-1-yl]-methanone] | 30 | 14 |  |  |
| O=C(NNC1CCCCC1)c1nn(-c2ccc(Cl)cc2Cl)c2c1COC/C2=C\c1ccc(F)cc1 [Cpd 29, (7Z)-1-(2,4-dichloro-phenyl)-7-(4-fluoro-benzylidene)-1,4,6,7-tetrahydro-pyrano[4,3-c]pyrazole-3-carboxylic acid N′-cyclohexyl-hydrazide] | 52 | 0 |  |  |
| C[C@@H](NC(=O)c1nn(-c2ccc(Cl)cc2Cl)c2c1COC/C2=C\c1ccc(Cl)o1)C1CCCCC1 [Cpd 62, (7Z)-7-(5-chloro-furan-2-ylmethylene)-1-(2,4-dichloro-phenyl)-1,4,6,7-tetrahydro-pyrano[4,3-c]pyrazole-3-carboxylic acid [(R)-1-cyclohexyl-ethyl]-amide] |  | 17 | 30 | 74 |
| C[C@@H](NC(=O)c1nn(-c2ccc(Cl)cc2Cl)c2c1COC/C2=C\c1ccc(Cl)s1)C1CCCCC1 [Cpd 52, (7Z)-7-(5-chloro-thiophen-2-ylmethylene)-1-(2,4-dichloro-phenyl)-1,4,6,7-tetrahydro-pyrano[4,3-c]pyrazole-3-carboxylic acid [(R)-1-cyclohexyl-ethyl]-amide] | 88 | 21 | 9 |  |
